Assay results taken from ChEMBL document CHEMBL3272026, “On the structure of medicinal chemistry” (J Med Chem, 1976).

Assays:
[1] = molecular target: Alcohol dehydrogenase (Homo sapiens) (UniProt P07327+P08319+P00325+P00326+P40394+P11766+P28332); assay: Binding affinity to alcohol dehydrogenase (unknown origin); format: protein assay
Mollusca = assay: Increase in mollusk membrane potential assessed as concentration required to raise 20 mV; format: functional, cell membranes
[2] = Lipophilicity, log P of the compound; format: physicochemical; details: octanol/water
Escherichia coli = assay: Antimicrobial activity against Escherichia coli; format: functional

Row | log(1/K) [1] | Structure (SMILES) | log(1/C) (Mollusca) | log(1/C) (Escherichia coli) | also measured
1 | -2.6 | NC(=O)c1ccc([N+](=O)[O-])cc1 |  |  | 
2 |  | O=C(O)c1cc(Cl)cc(Cl)c1O | 3.48 |  | logP [2]: 0.23
3 | -2.6 | NC(=O)c1ccc(F)cc1 |  |  | 
4 |  | Nc1ccc(S(=O)(=O)Nc2ccc(Cl)cc2)cc1 |  | 4.8 | 
5 |  | CCOc1cccc(NS(=O)(=O)c2ccc(N)cc2)c1 |  | 4.88 | 
6 |  | Cc1cccc(Nc2ccccc2C(=O)O)c1C [MEFENAMIC ACID] | 3.48 |  | logP ([2]; read-out: logP): 0.28
